According to patent US8778889B2, “Antimicrobial decapeptide oral hygiene treatment” (The United States of America as represented by the …, priority 2003, dated 2014):
Ends that are not written are not given here.

How the values were obtained:
[1] = physchem; assay type: physicochemical; conditions: for half-life at 200 μg/ml: buffer
Protocol: KSL was analyzed by RP-HPLC using a Prosphere C-18 analytical column (4.6×250 mm, Alltech, Deerfield, Ill.) with a Prosphere C-18 guard column (4.6×7.5 mm, Alltech, Deerfield, Ill.). A gradient elution was performed with mobile phase A (0.1% TFA in water) and mobile phase B (0.1% TFA in acetonitrile). KSL was eluted with a linear gradient from 80:20 to 70:30 (mobile phase A:B) for 8 min at a flow rate of 1.0 ml/min. Total run time was 16 min and the injection volume was 40 μl. Chromatograms were recorded by UV detection at 215 nm.
Test solutions of KSL were prepared using a stock peptide solution of 10 mg/ml in deionized water. The degradation of KSL peptide was investigated in sodium acetate (pH 4), sodium phosphate (pH 7.4) and sodium borate (pH 9) buffers at 0.1 M buffer concentration. Each buffer solution containing 200 μg/ml of KSL was incubated in a temperature-controlled oven at 25, 37 and 55° C., respectively. Samples were taken at pre-determined times and analyzed under HPLC conditions described above. The stability of KSL was studied at 37° C. in artificial saliva over a three day period. Artificial saliva was used in the in vitro release studies in an attempt to simulate actual conditions of use. The ingredients of the artificial saliva were as follows: sodium chloride, 0.844 g; potassium chloride, 1.200 g; calcium chloride dihydrate, 0.193 g; magnesium chloride hexahydrate, 0.111 g; potassium phosphate dibasic, 0.342 g; water to make to 1000 ml. The pH was adjusted with hydrochloric acid solution to pH 5.7±0.1 [26].

[2] = test system: A. baumannii WRAMC #14; assay type: cell-based, Acinetobacter baumannii
Excerpt: (§1) As shown in the table below, many drug-resistant pathogens including multidrug-resistant Acinetobacter baumannii (clinical isolates) were susceptible to the bactericidal activity of the newly developed antimicrobial peptides. […] This is shown by their lower MIC and MBC against a number of antibiotic-resistant bacteria including methicillin-resistant Staphylococcus aureus, vancomycin-resistant Enterococci, and multidrug-resistant Acinetobacter baumannii. Many of these resistant strains are involved in nosocomial infections, which affect the immunocompromised and the elderly individuals with weakened defenses. The tests were done in a broth microdilution assay as described in our earlier publication (Concannon et al., 2003).

[3] = test system: A. baumannii WRAMC #19; assay type: cell-based, Acinetobacter baumannii
Excerpt: as §1

[4] = test system: A. baumannii WRAMC #4; assay type: cell-based, Acinetobacter baumannii
Excerpt: as §1

[5] = test system: A. baumannii WRAMC #17; assay type: cell-based, Acinetobacter baumannii
Excerpt: as §1

[6] = test system: A. baumannii WRAMC #13; assay type: cell-based, Acinetobacter baumannii
Excerpt: as §1

[7] = test system: A. baumannii WRAMC #5; assay type: cell-based, Acinetobacter baumannii
Excerpt: as §1

[8] = test system: A. baumannii ATCC #19606; assay type: cell-based, Acinetobacter baumannii
Excerpt: as §1

[9] = test system: A. baumannii WRAMC #2; assay type: cell-based, Acinetobacter baumannii
Excerpt: as §1

[10] = test system: A. baumannii WRAMC #16; assay type: cell-based, Acinetobacter baumannii
Excerpt: as §1

[11] = test system: A. baumannii WRAMC #18; assay type: cell-based, Acinetobacter baumannii
Excerpt: as §1

[12] = test system: A. baumannii WRAMC #8; assay type: cell-based, Acinetobacter baumannii
Excerpt: as §1

[13] = test system: A. baumannii WRAMC #11; assay type: cell-based, Acinetobacter baumannii
Excerpt: as §1

[14] = test system: A. baumannii WRAMC #15; assay type: cell-based, Acinetobacter baumannii
Excerpt: as §1

[15] = test system: MRSA WRAMC #12; assay type: cell-based, Staphylococcus aureus
Excerpt: as §1

[16] = test system: MRSA WRAMC #9; assay type: cell-based, Staphylococcus aureus
Excerpt: as §1

[17] = test system: MRSA ATCC #33591; assay type: cell-based, Staphylococcus aureus
Excerpt: as §1

[18] = test system: MRSA VVRAMC #1; assay type: cell-based, Staphylococcus aureus
Excerpt: as §1

[19] = test system: MRSA ATCC #43300; assay type: cell-based, Staphylococcus aureus
Excerpt: as §1

[20] = test system: MRSA VVRAMC #10; assay type: cell-based, Staphylococcus aureus
Excerpt: as §1

KKVVFKVKFK-NH2 [KSL, Lys-Lys-Val-Val-Phe-Lys-Val-Lys-Phe-Lys-NH2]
13.8 days: half-life at 200 μg/ml ([1]; pH 7.4)
12.5 µg/mL: MIC [4]
200 µg/mL: MBC [6] | MBC [8] | MBC [11] | MBC [13] | MIC [17] | MBC [19]
6.7 kcal/mol: Activation energy (Ea) of degradation ([1]; pH 4)
25 µg/mL: MBC [4] | MBC [10]
165 days: half-life at 200 μg/ml ([1]; pH 4)
4.7 days: half-life at 200 μg/ml ([1]; pH 9)
100 µg/mL: MBC [2] | MBC [5] | MIC [8] | MBC [9] | MBC [12] | MIC [13] | MIC [14] | MIC [19]
>200 µg/mL: MBC [14] | MBC [15] | MIC [15] | MBC [16] | MIC [16] | MBC [17] | MBC [18] | MIC [18] | MBC [20] | MIC [20]
50 µg/mL: MBC [3] | MIC [6] | MBC [7] | MIC [11]
